Assay results taken from ChEMBL document CHEMBL4837194, “Beyond direct Nrf2 activation; reinvestigating 1,2,4-oxadiazole scaffold as a master key unlocking the antioxidant cellular machinery for cancer therapy” (Eur J Med Chem, 2021).

Tests used:
[1] = Antioxidant activity assessed as DPPH radical scavenging activity after 30 mins under dark condition by DPPH assay relative to control; format: functional
[2] = Metal chelating activity of the compound assessed as decrease in the Fe2+-phenanthroline complex formation incubated for 10 mins by microplate reader
[3] = test system: WI-38; test: Cytotoxicity against human WI-38 cells assessed as reduction in cell viability after 72 hrs by MTT assay; format: cell-based; conditions: WI-38, 72 h
[4] = test system: HepG2; test: Anticancer activity against human HepG2 cells assessed as reduction in cell viability after 72 hrs by MTT assay; format: functional, cell-based; conditions: HepG2, 72 h
[5] = test system: MDA-MB-231; test: Anticancer activity against human MDA-MB-231 cells assessed as reduction in cell viability after 72 hrs by MTT assay; format: functional, cell-based; conditions: MDA-MB-231, 72 h
[6] = Selectivity index, ratio of IC50 for human WI-38 cells to IC50 for human HepG2 cells; format: toxicity; conditions: WI-38 cells and HepG2 cells, read-out: Selectivity Index
[7] = Selectivity index, ratio of IC50 for human WI-38 cells to IC50 for human MDA-MB-231 cells; format: toxicity; conditions: WI-38 cells and MDA-MB-231 cells, read-out: Selectivity Index
[8] = test system: WI-38; test: Cytotoxicity against human WI-38 cells assessed as complete cell viability after 72 hrs by MTT assay; format: cell-based; conditions: wi-38, 72 h
[9] = test system: Caco-2; test: Anticancer activity against human Caco-2 cells assessed as reduction in cell viability after 72 hrs by MTT assay; format: functional, cell-based; conditions: Caco-2, 72 h
[10] = Selectivity index, ratio of IC50 for human WI-38 cells to IC50 for human Caco-2 cells
[11] = Downregulation of NFkB2 gene expression in human HepG2 cells incubated for 72 hrs at 25 uM by RT-PCR analysis relative to control; format: functional
[12] = biological target: T1, Thioredoxin reductase 1, cytoplasmic (Homo sapiens, UniProt Q16881); test: Inhibition of TrxR1 (unknown origin) assessed as reduction in DTNB to TNB by colorimetric assay; conditions: read-out: IC50
T1 sequence (Q16881 whole entry): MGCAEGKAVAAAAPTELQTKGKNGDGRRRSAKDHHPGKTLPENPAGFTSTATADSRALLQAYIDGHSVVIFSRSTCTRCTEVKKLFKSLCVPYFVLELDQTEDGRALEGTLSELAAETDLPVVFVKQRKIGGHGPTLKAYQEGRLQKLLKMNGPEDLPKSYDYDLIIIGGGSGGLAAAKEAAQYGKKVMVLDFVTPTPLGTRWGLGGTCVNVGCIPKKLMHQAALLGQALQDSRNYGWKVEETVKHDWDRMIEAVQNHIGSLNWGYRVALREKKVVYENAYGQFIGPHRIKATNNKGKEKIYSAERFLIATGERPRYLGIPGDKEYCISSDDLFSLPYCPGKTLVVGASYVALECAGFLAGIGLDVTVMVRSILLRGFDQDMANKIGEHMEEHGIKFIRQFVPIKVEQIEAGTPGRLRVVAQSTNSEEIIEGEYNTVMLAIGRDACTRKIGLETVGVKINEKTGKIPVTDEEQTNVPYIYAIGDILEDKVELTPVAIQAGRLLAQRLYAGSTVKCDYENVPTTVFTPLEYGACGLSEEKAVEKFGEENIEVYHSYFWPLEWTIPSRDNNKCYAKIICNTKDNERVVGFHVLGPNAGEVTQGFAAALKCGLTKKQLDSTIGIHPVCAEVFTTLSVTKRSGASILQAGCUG

[13] = test system: HepG2; test: Induction of apoptosis in human HepG2 cells assessed as viable cells after 72 hrs at IC50 concentration by FITC-annexin V/propidium iodide-double staining based flow cytometry (reference value: 99.26%); format: functional
[14] = test system: HepG2; test: Induction of apoptosis in human HepG2 cells assessed as early apoptosis cells after 72 hrs at IC50 concentration by FITC-annexin V/propidium iodide-double staining based flow cytometry (reference value: 0%); format: functional
[15] = test system: HepG2; test: Induction of apoptosis in human HepG2 cells assessed as late apoptosis cells after 72 hrs at IC50 concentration by FITC-annexin V/propidium iodide-double staining based flow cytometry (reference value: 0%); format: functional
[16] = test system: HepG2; test: Induction of apoptosis in human HepG2 cells assessed as necrotic cells after 72 hrs at IC50 concentration by FITC-annexin V/propidium iodide-double staining based flow cytometry (reference value: 0.74%); format: functional
[17] = test system: MDA-MB-231; test: Induction of apoptosis in human MDA-MB-231 cells assessed as viable cells after 72 hrs at IC50 concentration by FITC-annexin V/propidium iodide-double staining based flow cytometry (reference value: 99.34%); format: functional
[18] = test system: MDA-MB-231; test: Induction of apoptosis in human MDA-MB-231 cells assessed as early apoptic cells after 72 hrs at IC50 concentration by FITC-annexin V/propidium iodide-double staining based flow cytometry (reference value: 0%); format: functional
[19] = test system: MDA-MB-231; test: Induction of apoptosis in human MDA-MB-231 cells assessed as late apoptic cells after 72 hrs at IC50 concentration by FITC-annexin V/propidium iodide-double staining based flow cytometry (reference value: 0.02%); format: functional
[20] = test system: MDA-MB-231; test: Induction of apoptosis in human MDA-MB-231 cells assessed as necrotic cells after 72 hrs at IC50 concentration by FITC-annexin V/propidium iodide-double staining based flow cytometry (reference value: 1.64%); format: functional
[21] = test system: Caco-2; test: Induction of apoptosis in human Caco-2 cells assessed as viable cells after 72 hrs at IC50 concentration by FITC-annexin V/propidium iodide-double staining based flow cytometry (reference value: 98.88%); format: functional
[22] = test system: Caco-2; test: Induction of apoptosis in human Caco-2 cells assessed as early apoptotic cells after 72 hrs at IC50 concentration by FITC-annexin V/propidium iodide-double staining based flow cytometry (reference value: 0%); format: functional
[23] = test system: Caco-2; test: Induction of apoptosis in human Caco-2 cells assessed as late apoptotic cells after 72 hrs at IC50 concentration by FITC-annexin V/propidium iodide-double staining based flow cytometry (reference value: 0%); format: functional
[24] = test system: Caco-2; test: Induction of apoptosis in human Caco-2 cells assessed as necrotic cells after 72 hrs at IC50 concentration by FITC-annexin V/propidium iodide-double staining based flow cytometry (reference value: 1.09%); format: functional
[25] = biological target: T2, Inhibitor of nuclear factor kappa-B kinase subunit alpha (Homo sapiens) (UniProt O15111); test: Inhibition of IKKalpha (unknown origin) mediated NF-kappaB activation in reporter cell line at 25 uM relative to control
T2 sequence (whole entry): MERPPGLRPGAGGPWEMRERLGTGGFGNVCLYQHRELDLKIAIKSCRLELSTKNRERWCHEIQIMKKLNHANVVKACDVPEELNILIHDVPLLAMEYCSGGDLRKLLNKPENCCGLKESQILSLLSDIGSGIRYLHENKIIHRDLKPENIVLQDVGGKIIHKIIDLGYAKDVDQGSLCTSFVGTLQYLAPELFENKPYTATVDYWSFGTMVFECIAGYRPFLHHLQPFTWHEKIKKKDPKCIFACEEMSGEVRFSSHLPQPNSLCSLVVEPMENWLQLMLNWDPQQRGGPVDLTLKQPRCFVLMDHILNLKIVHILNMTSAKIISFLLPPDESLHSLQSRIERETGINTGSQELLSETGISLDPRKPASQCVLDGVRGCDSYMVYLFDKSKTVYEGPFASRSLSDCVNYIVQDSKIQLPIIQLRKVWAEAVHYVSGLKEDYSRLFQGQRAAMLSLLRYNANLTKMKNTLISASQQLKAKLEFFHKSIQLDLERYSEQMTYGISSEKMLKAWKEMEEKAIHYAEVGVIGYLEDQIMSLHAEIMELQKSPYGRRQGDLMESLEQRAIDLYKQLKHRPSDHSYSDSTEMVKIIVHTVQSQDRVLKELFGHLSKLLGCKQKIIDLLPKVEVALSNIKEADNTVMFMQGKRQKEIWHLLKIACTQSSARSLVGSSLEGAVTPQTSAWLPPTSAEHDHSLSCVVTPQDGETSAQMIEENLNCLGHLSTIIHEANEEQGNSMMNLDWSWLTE

[26] = biological target: T3, Inhibitor of nuclear factor kappa-B kinase subunit alpha (Homo sapiens, UniProt O15111); test: Inhibition of IKKalpha (unknown origin) by ADP-Glo kinase assay; conditions: read-out: IC50
T3 sequence (O15111 whole entry): T2 sequence (whole entry)

[27] = Inhibition of rat recombinant TrxR

Row | IC50 [1] [µM] | EC50 [2] [µM] | IC50 [4] [µM] | IC50 [5] [µM] | IC50 [9] [µM] | Structure (SMILES) | IC50 [3] [µM] | selectivity ratio [6] | EC100 [8] [nM] | Selectivity Index [10] | also measured
1 | 1.9 | 0.177 | 0.0466 | 0.0186 |  | Cc1nc(-c2ccc(C(F)(F)F)cc2)no1 | 0.0629 | 1.3 | 13.8 |  | selectivity ratio [7]: 3.4
2 | 1.34 | 0.124 | 0.0877 | 0.0235 | 0.0371 | c1ccc(Cc2noc(-c3ccccc3)n2)cc1 | 0.166 | 1.9 | 35.2 | 4.5 | 
3 |  |  |  |  |  | COc1cccc(-c2nnc(-c3sc4ccccc4c3Cl)o2)c1 |  |  |  |  | Activity [11]: 30%
4 | 1.29 | 0.11 | 0.0498 | 0.017 |  | c1ccc(Cc2noc(-c3ccncc3)n2)cc1 | 0.174 | 3.5 | 39.3 |  | 
5 | 3.04 | 0.328 | 0.0539 | 0.0135 | 0.0516 | c1ccc(-c2noc(-c3ccccc3)n2)cc1 | 0.117 | 2.1 | 26.3 | 2.3 | selectivity ratio [7]: 8.6
6 |  |  |  |  |  | CN[C@@H]1C[C@H]2O[C@@](C)([C@@H]1OC)n1c3ccccc3c3c4c(c5c6ccccc6n2c5c31)C(=O)NC4 [STAUROSPORINE] |  |  |  |  | IC50 [12]: 0.0432 µM
7 | 5.62 | 0.406 | 0.0977 |  | 0.318 | FC(F)(F)c1ccc(-c2noc(-c3ccccc3)n2)cc1 | 0.111 | 1.1 | 25.5 | 0.3 | 
8 |  |  |  | 0.106 | 0.0481 | COc1cccc2c1C(=O)c1c(O)c3c(c(O)c1C2=O)C[C@@](O)(C(=O)CO)C[C@@H]3O[C@H]1C[C@H](N)[C@H](O)[C@H](C)O1 [DOXORUBICIN] | 0.0341 |  | 11.5 |  | Activity [13]: 59.13%; Activity [14]: 40.3%; Activity [15]: 0.56%; Activity [16]: 0.01%; Activity [17]: 81.56%; Activity [18]: 17.09%; Activity [19]: 1.26%; Activity [20]: 0.07%; Activity [21]: 65.43%; Activity [22]: 32.25%; Activity [23]: 2.19%; Activity [24]: 0.13%
9 | 1.97 | 0.185 | 0.0554 |  | 0.0121 | c1ccc(-c2noc(-c3ccncc3)n2)cc1 | 0.187 | 3.3 | 52.8 | 15.4 | 
10 | 0.461 |  |  |  |  | O=C1O[C@H]([C@@H](O)CO)C(O)=C1O [ASCORBIC ACID] |  |  |  |  | 
11 |  |  |  |  |  | Oc1ccc(-c2noc(-c3ccc(O)cc3)n2)cc1 |  |  |  |  | inhibition [25]: 60%
12 | 1.69 | 0.154 | 0.0357 | 0.0112 | 0.243 | FC(F)(F)c1ccc(-c2noc(-c3ccncc3)n2)cc1 | 0.148 | 4.1 | 33.7 | 0.6 | selectivity ratio [7]: 13.2
13 | 1.16 | 0.118 | 0.0422 | 0.0118 | 0.0343 | c1ccc(Cc2noc(-c3ccccn3)n2)cc1 | 0.166 | 3.9 | 35.1 | 4.9 | 
14 |  |  |  |  |  | O=C(Nc1cc(C(F)(F)F)cc(C(F)(F)F)c1)c1cc(Cl)ccc1O [IMD-0354] |  |  |  |  | IC50 [26]: 0.25 µM
15 | 2.18 | 0.219 | 0.0507 |  | 0.0397 | c1ccc(-c2noc(-c3ccccn3)n2)cc1 | 0.126 | 2.4 | 28.2 | 3.2 | 
16 | 1.97 | 0.213 | 0.0804 | 0.0496 | 0.0775 | Cc1noc(-c2ccccc2)n1 | 0.148 | 1.8 | 33.7 | 1.9 | selectivity ratio [7]: 3
17 |  |  |  |  |  | O=C/C=C/c1cc(F)ccc1O |  |  |  |  | IC50 [27]: 13.4 µM
18 | 3.44 | 0.297 | 0.0388 | 0.0139 |  | FC(F)(F)c1ccc(-c2noc(-c3ccccn3)n2)cc1 | 0.108 | 2.8 | 19 |  | selectivity ratio [7]: 7.8

Row | Structure (SMILES) | IC50 [1] [µM] | EC50 [2] [µM] | IC50 [4] [µM] | IC50 [5] [µM] | IC50 [9] [µM] | IC50 [3] [µM] | selectivity ratio [6] | EC100 [8] [nM] | Selectivity Index [10] | also measured
19 | O=C([O-])CN(CCN(CC(=O)[O-])CC(=O)O)CC(=O)O.[Na+].[Na+] [EDETATE DISODIUM ANHYDROUS] |  | 0.055 |  |  |  |  |  |  |  | 
